Converted amounts (≈) assume the structure as drawn.
test system: Staphylococcus aureus; test: Antibacterial activity against methicillin-sensitive Staphylococcus aureus assessed as growth inhibition after 16 hrs by agar dilution method; format: functional

Point of comparison: `CC(O)c1ccc(-c2ccc3c(c2)OC[C@H]2[C@H](Cn4ccnn4)OC(=O)N32)cn1` (some centres undefined), MIC 1 mg/L (≈ 2.54 µM). Against it:
- O=C1O[C@@H](Cn2ccnn2)[C@@H]2COc3cc(-c4ccc(Cn5ccnn5)nc4)ccc3N12 — 2-fold higher, 2 mg/L (≈ 4.65 µM)
- N#Cc1ccc(-c2ccc3c(c2)OC[C@H]2[C@H](C(N)=O)OC(=O)N32)cn1 — higher, > 32 mg/L
- Cc1nc(-c2ccc(-c3ccc4c(c3)OC[C@H]3[C@H](C(N)=O)OC(=O)N43)cn2)no1 — higher, > 32 mg/L
- NC(=O)[C@@H]1OC(=O)N2c3ccc(-c4ccc(-n5ccoc5=O)nc4)cc3OC[C@@H]12 — higher, > 32 mg/L
- NC(=O)[C@@H]1OC(=O)N2c3ccc(-c4ccc(Cn5cncn5)nc4)cc3OC[C@@H]12 — higher, > 32 mg/L
- CN1C[C@@H](c2ccc(-c3ccc4c(c3)OC[C@H]3[C@H](Cn5ccnn5)OC(=O)N43)cn2)OC1=O — 2-fold lower, 0.5 mg/L (≈ 1.11 µM)
- O=C1O[C@@H](Cn2ccnn2)[C@@H]2COc3cc(-c4ccc(CO)nc4)ccc3N12 — 2-fold higher, 2 mg/L (≈ 5.27 µM)
- CC(=O)c1ccc(-c2ccc3c(c2)OC[C@H]2[C@H](Cn4ccnn4)OC(=O)N32)cn1 — 2-fold lower, 0.5 mg/L (≈ 1.28 µM)
- CCO/N=C(\C)c1ccc(-c2ccc3c(c2)OC[C@H]2[C@H](Cn4ccnn4)OC(=O)N32)cn1 — higher, > 32 mg/L

test system: Staphylococcus epidermidis; test: Antibacterial activity against methicillin-resistant Staphylococcus epidermidis assessed as growth inhibition after 16 hrs by agar dilution method; format: functional

Point of comparison: `CN1C[C@@H](c2ccc(-c3ccc4c(c3)OC[C@H]3[C@H](Cn5ccnn5)OC(=O)N43)cn2)OC1=O`, MIC 1 mg/L (≈ 2.23 µM). Against it:
- O=C1O[C@@H](Cn2ccnn2)[C@@H]2COc3cc(-c4ccc(Cn5ccnn5)nc4)ccc3N12 — the same, 1 mg/L (≈ 2.32 µM)
- NC(=O)[C@@H]1OC(=O)N2c3ccc(-c4ccc(-n5ccoc5=O)nc4)cc3OC[C@@H]12 — higher, > 32 mg/L
- NC(=O)[C@@H]1OC(=O)N2c3ccc(-c4ccc(Cn5cncn5)nc4)cc3OC[C@@H]12 — higher, > 32 mg/L
- O=C1O[C@@H](Cn2ccnn2)[C@@H]2COc3cc(-c4ccc(CO)nc4)ccc3N12 — the same, 1 mg/L (≈ 2.64 µM)
- CC(O)c1ccc(-c2ccc3c(c2)OC[C@H]2[C@H](Cn4ccnn4)OC(=O)N32)cn1 (some centres undefined) — the same, 1 mg/L (≈ 2.54 µM)
- CC(=O)c1ccc(-c2ccc3c(c2)OC[C@H]2[C@H](Cn4ccnn4)OC(=O)N32)cn1 — the same, 1 mg/L (≈ 2.56 µM)

test system: Streptococcus pneumoniae; test: Antibacterial activity against penicillin-resistant Streptococcus pneumoniae assessed as growth inhibition after 16 hrs by agar dilution method; format: functional

Point of comparison: `CC(O)c1ccc(-c2ccc3c(c2)OC[C@H]2[C@H](Cn4ccnn4)OC(=O)N32)cn1` (some centres undefined), MIC 0.5 mg/L (≈ 1.27 µM). Against it:
- O=C1O[C@@H](Cn2ccnn2)[C@@H]2COc3cc(-c4ccc(Cn5ccnn5)nc4)ccc3N12 — 4-fold higher, 2 mg/L (≈ 4.65 µM)
- N#Cc1ccc(-c2ccc3c(c2)OC[C@H]2[C@H](C(N)=O)OC(=O)N32)cn1 — higher, > 32 mg/L
- Cc1nc(-c2ccc(-c3ccc4c(c3)OC[C@H]3[C@H](C(N)=O)OC(=O)N43)cn2)no1 — higher, > 32 mg/L
- NC(=O)[C@@H]1OC(=O)N2c3ccc(-c4ccc(-n5ccoc5=O)nc4)cc3OC[C@@H]12 — higher, > 32 mg/L
- NC(=O)[C@@H]1OC(=O)N2c3ccc(-c4ccc(Cn5cncn5)nc4)cc3OC[C@@H]12 — higher, > 32 mg/L
- CN1C[C@@H](c2ccc(-c3ccc4c(c3)OC[C@H]3[C@H](Cn5ccnn5)OC(=O)N43)cn2)OC1=O — 2-fold lower, 0.25 mg/L (≈ 0.557 µM)
- O=C1O[C@@H](Cn2ccnn2)[C@@H]2COc3cc(-c4ccc(CO)nc4)ccc3N12 — 4-fold higher, 2 mg/L (≈ 5.27 µM)
- CC(=O)c1ccc(-c2ccc3c(c2)OC[C@H]2[C@H](Cn4ccnn4)OC(=O)N32)cn1 — 2-fold lower, 0.25 mg/L (≈ 0.639 µM)
- CCO/N=C(\C)c1ccc(-c2ccc3c(c2)OC[C@H]2[C@H](Cn4ccnn4)OC(=O)N32)cn1 — higher, > 32 mg/L

test system: Staphylococcus aureus; test: Antibacterial activity against methicillin-resistant Staphylococcus aureus assessed as growth inhibition after 16 hrs by agar dilution method; format: functional

Point of comparison: `CN1C[C@@H](c2ccc(-c3ccc4c(c3)OC[C@H]3[C@H](Cn5ccnn5)OC(=O)N43)cn2)OC1=O`, MIC 1 mg/L (≈ 2.23 µM). Against it:
- O=C1O[C@@H](Cn2ccnn2)[C@@H]2COc3cc(-c4ccc(Cn5ccnn5)nc4)ccc3N12 — the same, 1 mg/L (≈ 2.32 µM)
- NC(=O)[C@@H]1OC(=O)N2c3ccc(-c4ccc(-n5ccoc5=O)nc4)cc3OC[C@@H]12 — higher, > 32 mg/L
- NC(=O)[C@@H]1OC(=O)N2c3ccc(-c4ccc(Cn5cncn5)nc4)cc3OC[C@@H]12 — higher, > 32 mg/L
- O=C1O[C@@H](Cn2ccnn2)[C@@H]2COc3cc(-c4ccc(CO)nc4)ccc3N12 — the same, 1 mg/L (≈ 2.64 µM)
- CC(O)c1ccc(-c2ccc3c(c2)OC[C@H]2[C@H](Cn4ccnn4)OC(=O)N32)cn1 (some centres undefined) — the same, 1 mg/L (≈ 2.54 µM)
- CC(=O)c1ccc(-c2ccc3c(c2)OC[C@H]2[C@H](Cn4ccnn4)OC(=O)N32)cn1 — 2-fold lower, 0.5 mg/L (≈ 1.28 µM)

test system: Enterococcus faecalis; test: Antibacterial activity against Enterococcus faecalis assessed as growth inhibition after 16 hrs by agar dilution method; format: functional

Point of comparison: `CC(=O)c1ccc(-c2ccc3c(c2)OC[C@H]2[C@H](Cn4ccnn4)OC(=O)N32)cn1`, MIC 2 mg/L (≈ 5.11 µM). Against it:
- O=C1O[C@@H](Cn2ccnn2)[C@@H]2COc3cc(-c4ccc(Cn5ccnn5)nc4)ccc3N12 — 2-fold higher, 4 mg/L (≈ 9.29 µM)
- N#Cc1ccc(-c2ccc3c(c2)OC[C@H]2[C@H](C(N)=O)OC(=O)N32)cn1 — higher, > 32 mg/L
- Cc1nc(-c2ccc(-c3ccc4c(c3)OC[C@H]3[C@H](C(N)=O)OC(=O)N43)cn2)no1 — higher, > 32 mg/L
- NC(=O)[C@@H]1OC(=O)N2c3ccc(-c4ccc(-n5ccoc5=O)nc4)cc3OC[C@@H]12 — higher, > 32 mg/L
- NC(=O)[C@@H]1OC(=O)N2c3ccc(-c4ccc(Cn5cncn5)nc4)cc3OC[C@@H]12 — higher, > 32 mg/L
- CN1C[C@@H](c2ccc(-c3ccc4c(c3)OC[C@H]3[C@H](Cn5ccnn5)OC(=O)N43)cn2)OC1=O — the same, 2 mg/L (≈ 4.46 µM)
- O=C1O[C@@H](Cn2ccnn2)[C@@H]2COc3cc(-c4ccc(CO)nc4)ccc3N12 — 2-fold higher, 4 mg/L (≈ 10.5 µM)
- CC(O)c1ccc(-c2ccc3c(c2)OC[C@H]2[C@H](Cn4ccnn4)OC(=O)N32)cn1 (some centres undefined) — the same, 2 mg/L (≈ 5.08 µM)
- CCO/N=C(\C)c1ccc(-c2ccc3c(c2)OC[C@H]2[C@H](Cn4ccnn4)OC(=O)N32)cn1 — higher, > 32 mg/L

test system: Staphylococcus epidermidis; test: Antibacterial activity against methicillin-sensitive Staphylococcus epidermidis assessed as growth inhibition after 16 hrs by agar dilution method; format: functional

Point of comparison: `CC(=O)c1ccc(-c2ccc3c(c2)OC[C@H]2[C@H](Cn4ccnn4)OC(=O)N32)cn1`, MIC 0.5 mg/L (≈ 1.28 µM). Against it:
- O=C1O[C@@H](Cn2ccnn2)[C@@H]2COc3cc(-c4ccc(Cn5ccnn5)nc4)ccc3N12 — 2-fold higher, 1 mg/L (≈ 2.32 µM)
- N#Cc1ccc(-c2ccc3c(c2)OC[C@H]2[C@H](C(N)=O)OC(=O)N32)cn1 — higher, > 32 mg/L
- Cc1nc(-c2ccc(-c3ccc4c(c3)OC[C@H]3[C@H](C(N)=O)OC(=O)N43)cn2)no1 — higher, > 32 mg/L
- NC(=O)[C@@H]1OC(=O)N2c3ccc(-c4ccc(-n5ccoc5=O)nc4)cc3OC[C@@H]12 — higher, > 32 mg/L
- NC(=O)[C@@H]1OC(=O)N2c3ccc(-c4ccc(Cn5cncn5)nc4)cc3OC[C@@H]12 — higher, > 32 mg/L
- CN1C[C@@H](c2ccc(-c3ccc4c(c3)OC[C@H]3[C@H](Cn5ccnn5)OC(=O)N43)cn2)OC1=O — the same, 0.5 mg/L (≈ 1.11 µM)
- O=C1O[C@@H](Cn2ccnn2)[C@@H]2COc3cc(-c4ccc(CO)nc4)ccc3N12 — 2-fold higher, 1 mg/L (≈ 2.64 µM)
- CC(O)c1ccc(-c2ccc3c(c2)OC[C@H]2[C@H](Cn4ccnn4)OC(=O)N32)cn1 (some centres undefined) — 2-fold higher, 1 mg/L (≈ 2.54 µM)
- CCO/N=C(\C)c1ccc(-c2ccc3c(c2)OC[C@H]2[C@H](Cn4ccnn4)OC(=O)N32)cn1 — higher, > 32 mg/L

Reference: ChEMBL document CHEMBL2396620, “Synthesis and biological evaluation of novel benzoxazinyl-oxazolidinones as potential antibacterial agents” (2013)
